Reference: ChEMBL document CHEMBL1151501, “A benzisothiazolone class of potent, selective mechanism-based inhibitors of human leukocyte elastase” (Bioorg Med Chem Lett, 1994)

How the values were obtained:
[1] = target: T1, Neutrophil elastase (Homo sapiens) (UniProt P08246)
T1 sequence (whole entry): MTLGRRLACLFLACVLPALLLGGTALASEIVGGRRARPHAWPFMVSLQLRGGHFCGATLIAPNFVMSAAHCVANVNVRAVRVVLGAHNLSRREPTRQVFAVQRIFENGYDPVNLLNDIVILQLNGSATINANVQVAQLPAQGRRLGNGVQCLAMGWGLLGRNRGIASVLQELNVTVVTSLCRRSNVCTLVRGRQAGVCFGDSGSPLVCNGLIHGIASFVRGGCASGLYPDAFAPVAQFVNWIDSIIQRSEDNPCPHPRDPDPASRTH
Description: Inhibition of human leukocyte elastase (HLE) expressed as K inactivation rate

[2] = target: T1, Neutrophil elastase (Homo sapiens); remark: listed apart in the source
Description: Inhibition of human leukocyte elastase (HLE) expressed as K reactivation rate

Neutrophil elastase = target: T2, Neutrophil elastase (Homo sapiens, UniProt P08246); experiment: Potency of Inhibition of human leukocyte elastase (HLE) expressed as apparent binding constant
T2 sequence (P08246 whole entry): T1 sequence (whole entry)

SMILES	K inact [1] [M⁻¹ s⁻¹]	Kreact [2] [s⁻¹]	Ki (Neutrophil elastase) [µM]
CCOc1cccc2c1C(=O)N(CSc1nnnn1-c1ccccc1)S2(=O)=O	45300	0.00014	
CC(C)Oc1cccc2c1C(=O)N(CSc1nnnn1-c1ccccc1)S2(=O)=O	8900	0.00016	
CC(C)(C)c1cccc2c1C(=O)N(CSc1nnnn1-c1ccccc1)S2(=O)=O			2
O=C1c2c(-c3ccccc3)cccc2S(=O)(=O)N1CSc1nnnn1-c1ccccc1	5800	0.0005	

The remaining lines, values ahead:

K inact [1] [M⁻¹ s⁻¹]	Kreact [2] [s⁻¹]	Ki (Neutrophil elastase) [µM]	SMILES
190	4.7e-05		Cn1cnnc1SCN1C(=O)c2ccccc2S1(=O)=O
1000	0.0001		Cn1nnnc1SCN1C(=O)c2ccccc2S1(=O)=O
630	0.0001		CC(=O)OCN1C(=O)c2ccccc2S1(=O)=O
2500	0.0001		O=C1c2ccccc2S(=O)(=O)N1CSc1nnnn1C1CCCCC1
	0.00036		O=C1c2c(Br)cccc2S(=O)(=O)N1CSc1nnnn1-c1ccccc1
